# Reference: patent US20060276407A1, “Methods of treating hepatitis C virus” (Schering Corporation, priority 2005, published 2006)
# Read-outs that look alike come from different tables or passages of the source.
# Tests used:
# [1] = test system: bicistronic subgenomic replicon (genotype 1b); test: Bicistronic subgenomic replicon suppression, 72 hour assay in HuH-7 cells; format: cell-based, HCV; details: Hepatitis C virus
# Source text: NS3-mediated cleavage of the HCV polyprotein releases functional viral proteins essential for viral propagation. Therefore, blockage of NS3 protease activity by compound of Formula Ia is expected to inhibit viral replication in infected host cells.
# [2] = Multiple oral dosing for 14 days, pharmacokinetics in HCV infected subjects (Example 3); format: in vivo, human; details: for DN Cmax / DN-AUC(0-12 hr): dose-normalized (to 100 mg); for Cmin: at 0 hour (trough) predose; for Cmax / AUC(0-t) / Tmax / Vd/F / half-life: human, plasma, oral; for half-life: read-out: t½ (converted)
# Method: Multiple escalating doses of compound of Formula Ia were administered for 14 days to HCV positive subjects who were genotype 1 Interferon-a (with or without ribavirin) non responders. In a randomized, placebo controlled, third party blind study, multiple doses of 100 mg BID, 200 mg BID, 400 mg BID, 400 mg TID, and 600 mg TID of compound of Formula Ia or placebo in a 3:1 ratio with or without food were evaluated.
# Upon acceptance into the study, within each cohort, subjects were randomized in a 3:1 ratio (active to placebo) and received one of the following dosing groups: • Group 1: Compound of Formula Ia 100 mg (2×50 mg) BID or matching placebo×14 days without food. • Group 2: Compound of Formula Ia 200 mg (2×100 mg) BID or matching placebo×14 days without food. • Group 3: Compound of Formula Ia 400 mg (4×100 mg) BID or matching placebo×14 days without food. • Group4: Compound of Formula Ia 400 mg (4×100 mg) TID or matching placebo×14 days without food. • Group 5: Compound of Formula Ia 400 mg (4×100 mg) BID or matching placebo×14 days with food. • Group 6: Compound of Formula Ia 600 mg (6×100 mg) BID or matching placebo×14 days without food. • Group 7: Compound of Formula Ia 600 mg (6×100 mg) BID or matching placebo×14 days with food. • Group 8: compound of Formula Ia 600 mg (6×100 mg) TID or matching placebo×14 days without food. • Group 9: compound of Formula Ia intermediate dose or matching placebo×14 days with or without food.
# Each subject was randomized to one treatment group. On Day 14, only the AM dose was administered.
# For Cohorts Without Food: Treatments were administered on the morning (approximately 8 AM) of Days 1 and 14 following a 10 hour fast. Fasting continued until 4 hours postdose. Water was allowed during the fasting period. On the nonpharmacokinetic collection days (Days 2 through 13) breakfast and dinner were consumed either 90 minutes before or 90 minutes after each dose. All treatments were administered with approximately 240 mL of noncarbonated water. All doses on Days 1-14 were administered at approximately the same time each day, for cohorts with BID dosing study treatment were administered approximately 12 hours apart at 8 AM and 8 PM, and for cohorts with TID dosing study treatment were administered approximately 8 hours apart at 8 AM, 4 PM, and 12 Midnight.
# For Cohorts With TID Dosing: All volunteers were dosed three times daily at approximately the same time each day; the doses were administered approximately 8 hours apart at 8 AM, 4 PM, and 12 Midnight.
# For Cohorts With BID Dosing: All volunteers were dosed twice a day at approximately the same time each day. The doses were administered approximately 12 hours apart at 8 AM and 8 PM.
# On Day 14, all subjects received only their assigned AM dose. During the dosing the capsule(s) were swallowed whole, not chewed or crushed. After dosing, the oral cavity was inspected to assure the volunteer had completely swallowed the capsule(s). […] Water was permitted throughout the fasting and nonfasting periods.
# The plasma concentration data of compound of Formula Ia was used to estimate the following pharmacokinetic parameters: • Cmax—Maximum observed plasma concentration; • Tmax—Time of observed maximum plasma concentration; • AUC(0-t)—Area under the plasma concentration-time curve over the dosing interval • AUC (tf)—Area under the plasma concentration-time curve to the final quantifiable sample • CL/F—Apparent total body clearance. • t½—Terminal phase half life • Vd/F—Apparent volume of distribution • R—Accumulation ratio
# All plasma samples were assayed for compound of Formula Ia using a validated liquid chromatographic tandem mass spectrometric (LC-MS/MS) method.
# [3] = 100 mg, Day 14, 100 mg BID, mean
# [4] = 200 mg, Day 14, 200 mg BID, mean
# [5] = 400 mg, Day 14, 400 mg BID, mean
# [6] = 400 mg, Day 14, 400 mg TID, mean
smiles,measurement,setting,value
"CC(C)(C)NC(=O)N[C@H](C(=O)N1C[C@H]2[C@@H]([C@H]1C(=O)NC(CC1CCC1)C(=O)C(N)=O)C2(C)C)C(C)(C)C (mixture of isomers) [Formula Ia, (1 R, 5S)-N-[3-Amino-1-(Cyclobutylmethyl)-2,3-Dioxopropyl]-3-[2(S)-[[[(1,1-Dimethylethyl)Amino]Carbonyl]Amino]-3,3-Dimethyl-1-Oxobutyl]-6,6-Dimethyl-3-Azabicyclo[3.1.0]Hexan-2(S)-Carboxamide]",IC50,"[1]; n=25, read-out: IC50 for suppression (4-log reduction) of the replicon (converted)",~0.2 µM
same,IC90,"[1]; n=25, read-out: IC90 for suppression (4-log reduction) of the replicon (converted)",~0.4 µM
same,mean accumulation ratio,[2]; BID dosing,1
same,DN Cmax,"[2]; Day 1, 100 mg BID, mean",131 ng/mL
same,DN-AUC(0-12 hr),"[2]; Day 1, 100 mg BID, mean",417 ng·h/mL
same,DN Cmax,"[2]; Day 1, 200 mg BID, mean",162 ng/mL
same,DN-AUC(0-12 hr),"[2]; Day 1, 200 mg BID, mean",492 ng·h/mL
same,DN Cmax,"[2]; Day 1, 400 mg BID, mean",116 ng/mL
same,DN-AUC(0-12 hr),"[2]; Day 1, 400 mg BID, mean",421 ng·h/mL
same,Cmin,"[2]; Day 14, 100 mg BID, mean",12.7 ng/mL
same,DN Cmax,"[2]; Day 14, 100 mg BID, mean",193 ng/mL
same,DN-AUC(0-12 hr),"[2]; Day 14, 100 mg BID, mean",700 ng·h/mL
same,CL/F,"[2]; Day 14, 100 mg BID, mean",159 L/h
same,R (accumulation ratio),"[2]; Day 14, 100 mg BID, mean",2.40
same,t½,"[2]; Day 14, 100 mg BID, mean",8.58 h
same,Cmin,"[2]; Day 14, 200 mg BID, mean",46.3 ng/mL
same,DN Cmax,"[2]; Day 14, 200 mg BID, mean",212 ng/mL
same,DN-AUC(0-12 hr),"[2]; Day 14, 200 mg BID, mean",693 ng·h/mL
same,CL/F,"[2]; Day 14, 200 mg BID, mean",155 L/h
same,R (accumulation ratio),"[2]; Day 14, 200 mg BID, mean",1.45
same,Cmin,"[2]; Day 14, 400 mg BID, mean",48.8 ng/mL
same,DN Cmax,"[2]; Day 14, 400 mg BID, mean",115 ng/mL
same,DN-AUC(0-12 hr),"[2]; Day 14, 400 mg BID, mean",411 ng·h/mL
same,CL/F,"[2]; Day 14, 400 mg BID, mean",269 L/h
same,R (accumulation ratio),"[2]; Day 14, 400 mg BID, mean",1.00
same,Cmin,"[2]; Day 14, 400 mg TID, mean",183 ng/mL
same,DN Cmax,"[2]; Day 14, 400 mg TID, mean",138 ng/mL
same,CL/F,"[2]; Day 14, 400 mg TID, mean",206 L/h
same,R (accumulation ratio),"[2]; Day 14, 400 mg TID, mean",1.26
same,Cmax,"[2]; 100 mg, Day 1, 100 mg BID, mean, n = 12",131 ng/mL
same,AUC(0-t),"[2]; 100 mg, Day 1, 100 mg BID, mean, read-out: AUC(0-12 hr)",417 ng·h/mL
same,Tmax,"[2]; 100 mg, Day 1, 100 mg BID, median, read-out: Tmax",1.5 h
same,Cmax,[2]; [3],193 ng/mL
same,Vd/F,[2]; [3],1860 L
same,AUC(0-t),"[2]; 100 mg, Day 14, 100 mg BID, mean, read-out: AUC(0-12 hr)",700 ng·h/mL
same,half-life,[2]; [3],8.5 h
same,Tmax,"[2]; 100 mg, Day 14, 100 mg BID, median, read-out: Tmax",1.25 h
same,Cmax,"[2]; 200 mg, Day 1, 200 mg BID, mean, n = 12",324 ng/mL
same,AUC(0-t),"[2]; 200 mg, Day 1, 200 mg BID, mean, read-out: AUC(0-12 hr)",983 ng·h/mL
same,Tmax,"[2]; 200 mg, Day 1, 200 mg BID, median, read-out: Tmax",1 h
same,Cmax,[2]; [4],424 ng/mL
same,Vd/F,[2]; [4],2910 L
same,AUC(0-t),"[2]; 200 mg, Day 14, 200 mg BID, mean, read-out: AUC(0-12 hr)",1390 ng·h/mL
same,half-life,[2]; [4],13.4 h
same,Tmax,"[2]; 200 mg, Day 14, 200 mg BID, median, read-out: Tmax",1.25 h
same,Cmax,"[2]; 400 mg, Day 1, 400 mg BID, mean, n = 11",463 ng/mL
same,AUC(0-t),"[2]; 400 mg, Day 1, 400 mg BID, mean, read-out: AUC(0-12 hr)",1680 ng·h/mL
same,Tmax,"[2]; 400 mg, Day 1, 400 mg BID, median, read-out: Tmax",1.5 h
same,Cmax,"[2]; 400 mg, Day 1, 400 mg TID, mean, n = 10",504 ng/mL
same,AUC(0-t),"[2]; 400 mg, Day 1, 400 mg TID, mean, read-out: AUC(0-8 hr)",1650 ng·h/mL
same,Tmax,"[2]; 400 mg, Day 1, 400 mg TID, median, read-out: Tmax",1.5 h
same,Cmax,[2]; [5],459 ng/mL
same,Vd/F,[2]; [5],5030 L
same,AUC(0-t),"[2]; 400 mg, Day 14, 400 mg BID, mean, read-out: AUC(0-12 hr)",1640 ng·h/mL
same,half-life,[2]; [5],12.4 h
same,Tmax,"[2]; 400 mg, Day 14, 400 mg BID, median, read-out: Tmax",1 h
same,Cmax,[2]; [6],~550 ng/mL
same,Vd/F,[2]; [6],~5000 L
same,AUC(0-t),"[2]; 400 mg, Day 14, 400 mg TID, mean, read-out: AUC(0-8 hr)",1990 ng·h/mL
same,half-life,[2]; [6],15.9 h
same,Tmax,"[2]; 400 mg, Day 14, 400 mg TID, median, read-out: Tmax",1.5 h
same,Tmax,"[2]; across dosages (100 mg BID to 400 mg TID), read-out: Mean Tmax",1 to 1.5 h
same,Time at which steady-state trough levels were reached,[2]; multiple dosing,~11 days
